Results reported in patent publication US20260265229A1, “Small Molecule Modulators of IL-17A, Methods of Making and Methods of Using Thereof” (Ascletis Pharma (China) Co., Limited, priority 2023, published 2026).

Target: T1, IL-17A (Homo sapiens, UniProt Q16552)
T1 construct: purchased R&D 7955-IL
T1 sequence (Q16552 24-155): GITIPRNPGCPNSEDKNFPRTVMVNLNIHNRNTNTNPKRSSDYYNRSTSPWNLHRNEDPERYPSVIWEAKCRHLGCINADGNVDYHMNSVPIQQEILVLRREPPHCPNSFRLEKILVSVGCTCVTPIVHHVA
Assay: HEK-Blue IL-17 cell assay (SEAP reporter, rhIL-17A/A stimulation)
Type: cell-based
Settings: HEK-Blue IL-17 cells with rhIL-17A/A, 20 hours at 37° C., absorbance at 405 nm
Protocol: 1. The test Compounds were 3-fold serial diluted from 10 mM for 10 doses in DMSO.
2. Prepare Reference Compounds (IL-17A-Inhibitor-1) were 3-fold serial diluted from 1 mM for 10 doses in DMSO.
3. Prepare 1000× Positive control (1 mM IL-17A-Inhibitor-1) and 1000× vehicle control (100% DMSO).
• a) Cells were cultured as the HEK-Blue™ IL-17 technical data sheet recommended. HEK-Blue IL-17 cells were assayed in the exponential growth phase. • b) Aspirate growth medium and rinse cells twice with PBS to remove phenol red. • c) Resuspend cells in test medium to a proper concentration. • d) Only cells with viability greater than 90% were used for assays. • e) Transfer 25nl of compound dilutions into 384-well assay plates using Echo655; • f) Seed 25 ul of HEK-Blue IL-17 cells at 8,000 cells/well into 384-well plate with rhIL-17A/A. • g) Cells were incubated for 20 hours at 37° C. under 5% CO2 atmosphere. • h) Transfer 2 ul of cells supernatant into per well of 384-well assay plates. • i) Add 20 ul of PNPP substrate. • j) Measure the Absorbance at 405 nm on Envision 2105 plate reader.
RLU signal (LUMempd) is calculated for each well. % Inhibition is calculated as follow: […]
Signalave_pc: The average signal for the positive controls across the plate.
Signalave_vc: The average signal for negative controls across the plate.
Calculate IC50 and Plot effect-dose curve of cmpds:
Calculate IC50 by fitting % Inhibition values and log of compound concentrations to nonlinear regression (dose response−variable slope) with Graphpad 8.0.

Row | SMILES | IC50
1 | CC(C)n1nccc1C(=O)N[C@H](c1nc2c(F)cc(C3=C(C(=O)N4CC(F)(F)C4)CN(C(=O)OCc4ccccc4)C3)cc2[nH]1)C1CCCCCC1 [Example 50] | 420 nM
2 | COC(=O)N1C[C@H](C(=O)N2CC(F)(F)C2)[C@@H](c2ccc(NC(=O)[C@@H](NC(=O)c3nonc3C)C3CCC(F)(F)CC3)cc2)C1 [Example 56] | 1450 nM
3 | CC(=O)N1C[C@H](C(=O)N2CC(F)(F)C(F)(F)C2)[C@@H](c2ccc(NC(=O)[C@@H](NC(=O)c3ccnn3C(C)C)C3CCCCCC3)cc2)C1 [Example 54] | 28.6 nM
4 | CC(C)n1nccc1C(=O)N[C@H](C(=O)Nc1ccc([C@H]2CN(C(=O)N(C)C)C[C@@H]2C(=O)N2CC(F)(F)C(F)(F)C2)cc1)C1CCCCCC1 [Example 58] | 39.3 nM
5 | COC(=O)N1C[C@H](C(=O)N2CC(F)(F)C(F)(F)C2)[C@@H](c2ccc(NC(=O)[C@@H](NC(=O)c3ccnn3C(C)C)C3CCCCCC3)cc2F)C1 [Example 61] | 66.8 nM
6 | CC(=O)N1C[C@H](C(=O)N(C)CC(F)(F)F)[C@@H](c2ccc(NC(=O)[C@@H](NC(=O)c3ccnn3C(C)C)C3CCCCCC3)cc2)C1 [Example 68] | 48.6 nM
7 | CC(=O)N1C[C@H](C(=O)N2CCN(C)CC2)[C@@H](c2ccc(NC(=O)[C@@H](NC(=O)c3ccnn3C(C)C)C3CCCCCC3)cc2)C1 [Example 49] | 1860 nM
8 | CC(=O)N1C[C@H](C(=O)NCC(C)(F)F)[C@@H](c2ccc(NC(=O)[C@@H](NC(=O)c3ccnn3C(C)C)C3CCCCCC3)cc2)C1 [Example 52] | 103 nM
9 | COC(=O)N1C[C@H](C(=O)N2CC(F)(F)C2)[C@@H](c2ccc(NC(=O)[C@@H](NC(=O)c3ccnn3C(C)C)C3CCCCCC3)cc2)C1 [Example 2] | 110 nM
10 | COC(=O)N1C[C@H](C(=O)N2CC(F)(F)C2)[C@@H](c2ccc(NC(=O)[C@@H](NC(=O)c3ccnn3C(C)C)C3CCC(F)(F)CC3)cc2)C1 [Example 55] | 944 nM
11 | COC(=O)N1C[C@H](c2ccc(NC(=O)[C@@H](NC(=O)c3ccnn3C(C)C)C3CCCCCC3)cc2)[C@H](C(=O)N2CC(F)(F)C2)C1 [Example 1, methyl (3S,4S)-3-(4-((S)-2-cycloheptyl-2-(1-isopropyl-1H-pyrazole-5-carboxamido)acetamido)phenyl)-4-(3,3-difluoroazetidine-1-carbonyl)pyrrolidine-1-carboxylate] | 15.3 nM
12 | CC(=O)N1C[C@H](c2ccc(NC(=O)[C@@H](NC(=O)c3ccnn3C(C)C)C3CCCCCC3)cc2)[C@H](C(=O)N2CC(F)(F)C2)C1 [Example 6] | 69 nM
13 | CC(=O)N1CC(C(=O)N2CC(F)(F)C2)C(c2cc(F)c3nc([C@@H](NC(=O)c4ccnn4C(C)C)C4CCCCCC4)[nH]c3c2)C1 (stereo partly drawn) [Example 51] | 118 nM
14 | COC(=O)N1C[C@H](C(=O)N2CC(F)(F)C(F)(F)C2)[C@@H](c2ccc(NC(=O)[C@@H](NC(=O)c3ccnn3C(C)C)C3CCCCCC3)cc2)C1 [Example 57] | 46.8 nM
15 | COC(=O)N1CC(C(=O)N2CC(F)(F)C2)C(c2cc(F)c3nc([C@@H](NC(=O)c4ccnn4C(C)C)C4CCCCCC4)[nH]c3c2)C1 (stereo partly drawn) [Example 53] | 532 nM
16 | CC(=O)N1CC(c2ccc(NC(=O)[C@@H](NC(=O)c3ccnn3C(C)C)C3CCCCCC3)cc2)[C@H](C(=O)N2CC(F)(F)C(F)(F)C2)C1 (stereo partly drawn) [Cis-62] | 39.6 nM
17 | CC(=O)N1CC(c2ccc(NC(=O)[C@@H](NC(=O)c3ccnn3C(C)C)C(C3CC3)C3CC3)cc2)[C@@H](C(=O)N2CC(F)(F)C(F)(F)C2)C1 (stereo partly drawn) [Example 63] | 132 nM
18 | CC(=O)N1C[C@H](c2ccc(NC(=O)[C@@H](NC(=O)c3ccnn3C(C)C)C3CCCCCC3)cc2)[C@H](C(=O)N2CC(F)(F)C(F)(F)C2)C1 [Example 64] | 11.5 nM
19 | CC(=O)N1C[C@H](c2ccc(NC(=O)[C@@H](NC(=O)c3ccnn3C(C)C)C3CCCCCC3)c(F)c2)[C@H](C(=O)N2CC(F)(F)C(F)(F)C2)C1 [Example 67] | 31.4 nM
20 | CC(=O)N1C[C@H](c2ccc(NC(=O)[C@@H](NC(=O)c3ccnn3C(C)C)C3CCCCCC3)cc2)[C@H](C(=O)NCC(F)(F)F)C1 [Example 66] | 44.4 nM
21 | CC(=O)N1C[C@H](C(=O)N2CC(F)(F)C(F)(F)C2)[C@@H](c2ccc(NC(=O)[C@@H](NC(=O)c3ccnn3C(C)C)C3CCC(F)(F)CC3)cc2)C1 [Example 60] | 315 nM
22 | COC(=O)N1CC(C(=O)N2CC(F)(F)C2)=C(c2ccc3cnc([C@@H](NC(=O)c4ccnn4C(C)C)C4CCC(F)(F)CC4)nc3c2)C1 [Example 46] | 6040 nM
23 | CC(=O)N1C[C@H](C(=O)N2CC(F)(F)C(F)(F)C2)[C@H](c2ccc(NC(=O)[C@@H](NC(=O)c3ccnn3C(C)C)C3CCCCCC3)cc2)C1 [Example 65] | 57.2 nM
24 | CC(C)n1nccc1C(=O)N[C@H](C(=O)Nc1ccc([C@H]2CN(C(=O)CCC(F)(F)F)C[C@@H]2C(=O)N2CC(F)(F)C(F)(F)C2)cc1)C1CCCCCC1 [Example 59] | 143 nM
